Measurements from patent publication US6737383B1, “Herbicidal oxadiazolidines” (priority 1999, dated 2004).

Columns and labels:
[1] = tested on: bedstraw; assay: Test B pre/postemergence bedstraw; format: in vivo, Galium aparine
Procedure, shortened: (§1)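 Response is a visual 0-to-10 score relative to untreated plants, where 0 means no effect and 10 means complete control, taken twelve to sixteen days after application. Treatments went onto soil at planting and onto foliage of 1- to 4-leaf plants, using a surfactant-containing non-phytotoxic solvent.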

[2] = tested on: blackgrass; assay: Test B pre/postemergence blackgrass; format: in vivo, Alopecurus myosuroides
Procedure, shortened: as §1

[3] = tested on: surinam grass; assay: Test B pre/postemergence surinam grass; format: in vivo, Brachiaria decumbens
Procedure, shortened: as §1

[4] = tested on: cocklebur; assay: Test B pre/postemergence cocklebur; format: in vivo, Xanthium strumarium
Procedure, shortened: as §1

[5] = tested on: corn; assay: Test B pre/postemergence corn; format: in vivo, Zea mays
Procedure, shortened: as §1

[6] = tested on: crabgrass; assay: Test B pre/postemergence crabgrass; format: in vivo, Digitaria sanguinalis
Procedure, shortened: as §1

[7] = tested on: giant foxtail; assay: Test B pre/postemergence giant foxtail; format: in vivo, Setaria faberii
Procedure, shortened: as §1

[8] = tested on: morningglory; assay: Test B pre/postemergence morningglory; format: in vivo, Ipomoea hederacea
Procedure, shortened: as §1

[9] = tested on: pigweed; assay: Test B pre/postemergence pigweed; format: in vivo, Amaranthus retroflexus
Procedure, shortened: as §1

[10] = tested on: rape; assay: Test B pre/postemergence rape; format: in vivo, Brassica napus
Procedure, shortened: as §1

[11] = tested on: soybean; assay: Test B pre/postemergence soybean; format: in vivo, Glycine max
Procedure, shortened: as §1

[12] = tested on: sugar beet; assay: Test B pre/postemergence sugar beet; format: in vivo, Beta vulgaris
Procedure, shortened: as §1

[13] = tested on: velvetleaf; assay: Test B pre/postemergence velvetleaf; format: in vivo, Abutilon theophrasti
Procedure, shortened: as §1

[14] = tested on: wheat; assay: Test B pre/postemergence wheat; format: in vivo, Triticum aestivum
Procedure, shortened: as §1

[15] = tested on: wild oat; assay: Test B pre/postemergence wild oat; format: in vivo, Avena fatua
Procedure, shortened: as §1

[16] = tested on: purple nutsedge; assay: Test B pre/postemergence purple nutsedge; format: in vivo, Cyperus rotundus
Procedure, shortened: as §1

[17] = Postemergence, Rate 62 g/ha, scale 0 to 10, 0 is no effect, 10 is complete control
[18] = Postemergence, Rate 125 g/ha, scale of 0 to 10 where 0 is no effect and 10 is complete control
[19] = Postemergence, Rate 500 g/ha, scale 0 (no effect) to 10 (complete control)
[20] = Rate 125 g/ha, Preemergence, scale 0 to 10 (0 no effect, 10 complete control)
[21] = Rate 250 g/ha, Postemergence, scale 0 to 10, 0 is no effect, 10 is complete control
[22] = Rate 500 g/ha, Preemergence, scale 0 to 10 (0 no effect, 10 complete control)
[23] = Preemergence, Rate 250 g/ha, scale 0 (no effect) to 10 (complete control)
[24] = Rate 62 g/ha, Preemergence, scale 0 to 10
[25] = Rate 500 g/ha, Postemergence, scale 0 to 10, 0 is no effect, 10 is complete control

C#CCCn1c(=O)on(C(=O)N(c2ccc(F)cc2)C(C)C)c1=O [Compound 767]
8: Bedstraw plant response rating [1, 22] | Plant response rating, Crabgrass [6, 17] | Crabgrass plant response rating [6, 18] | Plant response rating, Giant foxtail [7, 17] | Giant foxtail plant response rating [7, 18]
10: Blackgrass plant response rating [2, 23] | Blackgrass plant response rating [2, 24] | Blackgrass plant response rating [2, 20] | Blackgrass plant response rating [2, 22] | Crabgrass plant response rating [6, 23] | Crabgrass plant response rating [6, 24] | Crabgrass plant response rating [6, 20] | Crabgrass plant response rating [6, 22] | Giant foxtail plant response rating [7, 23] | Giant foxtail plant response rating [7, 24] | Giant foxtail plant response rating [7, 20] | Giant foxtail plant response rating [7, 22] | Redroot pigweed plant response rating [9, 24] | Redroot pigweed plant response rating [9, 20] | Redroot pigweed plant response rating [9, 22] | Rape plant response rating [10, 22]
1: Plant response rating, Soybean [11, 17]
7: Plant response rating, Bedstraw [1, 17] | Bedstraw plant response rating [1, 18] | Bedstraw plant response rating [1, 21] | B. signalgrass plant response rating [3, 25] | Morningglory plant response rating [8, 19] | Soybean plant response rating [11, 19] | Sugarbeets plant response rating [12, 19] | Nutsedge plant response rating [16, 19]
5: Corn plant response rating [5, 22] | Plant response rating, Morningglory [8, 17] | Morningglory plant response rating [8, 18] | Morningglory plant response rating [8, 21] | Sugarbeets plant response rating [12, 21] | Wheat plant response rating [14, 20] | Wheat plant response rating [14, 22]
3: Plant response rating, Sugarbeets [12, 17] | Velvetleaf plant response rating [13, 19] | Wild oats plant response rating [15, 19]
9: Bedstraw plant response rating [1, 19] | Plant response rating, Blackgrass [2, 17] | Blackgrass plant response rating [2, 18] | Blackgrass plant response rating [2, 19] | Blackgrass plant response rating [2, 21] | Crabgrass plant response rating [6, 19] | Crabgrass plant response rating [6, 21] | Giant foxtail plant response rating [7, 19] | Giant foxtail plant response rating [7, 21] | Redroot pigweed plant response rating [9, 18] | Redroot pigweed plant response rating [9, 19] | Redroot pigweed plant response rating [9, 21] | Sugarbeets plant response rating [12, 22] | Wild oats plant response rating [15, 24] | Wild oats plant response rating [15, 22]
0: Bedstraw plant response rating [1, 20] | Cocklebur plant response rating [4, 23] | Cocklebur plant response rating [4, 24] | Cocklebur plant response rating [4, 20] | Cocklebur plant response rating [4, 22] | Plant response rating, Corn [5, 17] | Corn plant response rating [5, 18] | Corn plant response rating [5, 23] | Corn plant response rating [5, 24] | Corn plant response rating [5, 20] | Corn plant response rating [5, 21] | Morningglory plant response rating [8, 24] | Morningglory plant response rating [8, 20] | Morningglory plant response rating [8, 22] | Soybean plant response rating [11, 24] | Soybean plant response rating [11, 20] | Velvetleaf plant response rating [13, 24] | Velvetleaf plant response rating [13, 20] | Plant response rating, Wheat [14, 17] | Wheat plant response rating [14, 24] | Plant response rating, Wild oats [15, 17] | Wild oats plant response rating [15, 21] | Plant response rating, Nutsedge [16, 17] | Nutsedge plant response rating [16, 18] | Nutsedge plant response rating [16, 24] | Nutsedge plant response rating [16, 20] | Nutsedge plant response rating [16, 21] | Nutsedge plant response rating [16, 22]
2: Plant response rating, B. signalgrass [3, 17] | B. signalgrass plant response rating [3, 18] | Plant response rating, Cocklebur [4, 17] | Cocklebur plant response rating [4, 18] | Cocklebur plant response rating [4, 19] | Cocklebur plant response rating [4, 21] | Corn plant response rating [5, 19] | Soybean plant response rating [11, 22] | Sugarbeets plant response rating [12, 24] | Plant response rating, Velvetleaf [13, 17] | Velvetleaf plant response rating [13, 21] | Velvetleaf plant response rating [13, 22] | Wheat plant response rating [14, 19] | Wheat plant response rating [14, 21]
4: Rape plant response rating [10, 24] | Soybean plant response rating [11, 21]
6: B. signalgrass plant response rating [3, 21] | Plant response rating, Redroot pigweed [9, 17] | Rape plant response rating [10, 20] | Sugarbeets plant response rating [12, 20]

COc1ccc(N(C(=O)n2oc(=O)n(C(C)C)c2=O)C(C)C)cc1 [Compound 780]
0: Plant response rating, Bedstraw [1, 17] | Bedstraw plant response rating [1, 18] | Bedstraw plant response rating [1, 23] | Bedstraw plant response rating [1, 24] | Bedstraw plant response rating [1, 20] | Plant response rating, Blackgrass [2, 17] | Plant response rating, B. signalgrass [3, 17] | Plant response rating, Cocklebur [4, 17] | Cocklebur plant response rating [4, 18] | Cocklebur plant response rating [4, 19] | Cocklebur plant response rating [4, 24] | Cocklebur plant response rating [4, 20] | Cocklebur plant response rating [4, 21] | Plant response rating, Corn [5, 17] | Corn plant response rating [5, 18] | Morningglory plant response rating [8, 24] | Morningglory plant response rating [8, 20] | Plant response rating, Redroot pigweed [9, 17] | Redroot pigweed plant response rating [9, 18] | Redroot pigweed plant response rating [9, 19] | Redroot pigweed plant response rating [9, 24] | Redroot pigweed plant response rating [9, 21] | Plant response rating, Rape [10, 17] | Rape plant response rating [10, 18] | Rape plant response rating [10, 19] | Rape plant response rating [10, 24] | Rape plant response rating [10, 20] | Rape plant response rating [10, 21] | Soybean plant response rating [11, 24] | Soybean plant response rating [11, 20] | Soybean plant response rating [11, 21] | Plant response rating, Sugarbeets [12, 17] | Sugarbeets plant response rating [12, 19] | Sugarbeets plant response rating [12, 21] | Plant response rating, Velvetleaf [13, 17] | Velvetleaf plant response rating [13, 24] | Plant response rating, Wheat [14, 17] | Wheat plant response rating [14, 24] | Wheat plant response rating [14, 21] | Plant response rating, Wild oats [15, 17] | Wild oats plant response rating [15, 24] | Wild oats plant response rating [15, 20] | Plant response rating, Nutsedge [16, 17] | Nutsedge plant response rating [16, 18] | Nutsedge plant response rating [16, 24] | Nutsedge plant response rating [16, 20]
10: Crabgrass plant response rating [6, 23] | Crabgrass plant response rating [6, 24] | Crabgrass plant response rating [6, 20] | Crabgrass plant response rating [6, 22] | Giant foxtail plant response rating [7, 23] | Giant foxtail plant response rating [7, 24] | Giant foxtail plant response rating [7, 20] | Giant foxtail plant response rating [7, 22]
5: B. signalgrass plant response rating [3, 18] | B. signalgrass plant response rating [3, 21] | B. signalgrass plant response rating [3, 25] | Velvetleaf plant response rating [13, 22]
7: Crabgrass plant response rating [6, 19] | Crabgrass plant response rating [6, 21] | Plant response rating, Giant foxtail [7, 17] | Morningglory plant response rating [8, 21]
4: Blackgrass plant response rating [2, 19] | Blackgrass plant response rating [2, 21] | B. signalgrass plant response rating [3, 22] | Crabgrass plant response rating [6, 18] | Plant response rating, Morningglory [8, 17] | Morningglory plant response rating [8, 18] | Soybean plant response rating [11, 19] | Velvetleaf plant response rating [13, 19] | Velvetleaf plant response rating [13, 21] | Nutsedge plant response rating [16, 19] | Nutsedge plant response rating [16, 21]
6: Blackgrass plant response rating [2, 20] | B. signalgrass plant response rating ([3]; Rate 62 g/ha, Preemergence, scale 0 (no effect) to 10 (complete control)) | B. signalgrass plant response rating [3, 20] | Corn plant response rating [5, 19] | Corn plant response rating [5, 23] | Redroot pigweed plant response rating [9, 22] | Rape plant response rating [10, 22] | Sugarbeets plant response rating [12, 22] | Wheat plant response rating [14, 20]
2: Bedstraw plant response rating [1, 22] | Blackgrass plant response rating [2, 18] | Blackgrass plant response rating [2, 24] | Cocklebur plant response rating [4, 23] | Cocklebur plant response rating [4, 22] | Corn plant response rating [5, 24] | Corn plant response rating [5, 20] | Morningglory plant response rating [8, 22] | Sugarbeets plant response rating [12, 24] | Sugarbeets plant response rating [12, 20] | Wheat plant response rating [14, 19] | Wild oats plant response rating [15, 19] | Wild oats plant response rating [15, 21]
9: Blackgrass plant response rating [2, 23] | Blackgrass plant response rating [2, 22] | Corn plant response rating [5, 22] | Giant foxtail plant response rating [7, 19] | Giant foxtail plant response rating [7, 21] | Wheat plant response rating [14, 22] | Wild oats plant response rating [15, 22]
3: Corn plant response rating [5, 21] | Plant response rating, Crabgrass [6, 17] | Redroot pigweed plant response rating [9, 20] | Plant response rating, Soybean [11, 17] | Soybean plant response rating [11, 22] | Velvetleaf plant response rating [13, 20]
8: B. signalgrass plant response rating [3, 23] | Giant foxtail plant response rating [7, 18] | Morningglory plant response rating [8, 19]
